Measurements as given in US20260285850A1, “SUBSTITUTED OXAZOLIDINONES AND IMIDAZOLINONES AS HERBICIDES” (FMC CORPORATION, priority 2023, published 2026).

Legend:
Format in all cases: in vivo
[1] = system: ragweed (common ragweed, Ambrosia artemisiifolia); assay: Test A postemergence application, visual injury rating 0-100
Summary of the method: (§1)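 Plants were grown in a loam soil-sand blend and treated with test chemical in a non-phytotoxic solvent mixture containing surfactant, either sprayed on soil preemergence or applied postemergence to 2-10 cm plants. After 10 days in a greenhouse, injury was scored visually against untreated controls, 0 meaning no effect and 100 complete control.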

[2] = system: horseweed (Erigeron canadensis); assay: as above
Summary of the method: as §1

[3] = system: green foxtail (Setaria viridis); assay: as above
Summary of the method: as §1

[4] = system: wheat (Triticum aestivum); assay: as above
Summary of the method: as §1

kochia (Bassia scoparia) [5] = assay: as above
Summary of the method: as §1

[6] = system: barnyardgrass (Echinochloa crus-galli); assay: as above
Summary of the method: as §1

corn (Zea mays) [7] = assay: as above
Summary of the method: as §1

[8] = system: palmer (palmer amaranth, palmer pigweed, Amaranthus palmeri); assay: as above
Summary of the method: as §1

[9] = system: blackgrass (Alopecurus myosuroides); assay: as above
Summary of the method: as §1

[10] = system: galium (catchweed bedstraw, Galium aparine); assay: as above
Summary of the method: as §1

soybean (Glycine max) [11] = assay: as above
Summary of the method: as §1

[12] = system: ryegrass, Italian (italian ryegrass, Lolium multiflorum); assay: as above
Summary of the method: as §1

[13] = system: oat, wild (wild oat, Avena fatua); assay: as above
Summary of the method: as §1

[14] = system: barnyardgrass (Echinochloa crusgalli); assay: Test B flooded paddy test, visual plant response rating 0-100; details: 250 g ai/ha, Flood, applied to paddy water, evaluated after 13 days
Summary of the method: (§2)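 2-leaf plants; flood 3 cm over soil; compound dosed into paddy water; depth kept constant; greenhouse 13 d; visual scoring vs controls. Dash = no result.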

[15] = system: sedge, umbrella (small-flower umbrella sedge, Cyperus difformis); assay: as above; details: 250 g ai/ha, Flood, applied to paddy water, evaluated after 13 days
Summary of the method: as §2

[16] = system: ducksalad (Heteranthera limosa); assay: as above; details: 250 g ai/ha, Flood, applied to paddy water, evaluated after 13 days
Summary of the method: as §2

rice (Oryza sativa) = assay: as above; details: 250 g ai/ha, Flood, applied to paddy water, evaluated after 13 days
Summary of the method: as §2

[17] = system: ragweed (common ragweed, Ambrosia artemisiifolia); assay: Test A preemergence soil spray, visual injury rating 0-100; details: 10 days
Summary of the method: as §1

[18] = system: green foxtail (Setaria viridis); assay: as above; details: 10 days
Summary of the method: as §1

[19] = system: wheat (Triticum aestivum); assay: as above; details: 10 days
Summary of the method: as §1

kochia (Bassia scoparia) [20] = assay: as above; details: 62 g ai/ha, 10 days, 0 = no effect, 100 = complete control
Summary of the method: as §1

[21] = system: barnyardgrass (Echinochloa crus-galli); assay: as above; details: 10 days
Summary of the method: as §1

corn (Zea mays) [22] = assay: as above; details: 10 days
Summary of the method: as §1

[23] = system: palmer (palmer amaranth, palmer pigweed, Amaranthus palmeri); assay: as above; details: 10 days
Summary of the method: as §1

[24] = system: blackgrass (Alopecurus myosuroides); assay: as above; details: 10 days
Summary of the method: as §1

soybean (Glycine max) [25] = assay: as above; details: 10 days
Summary of the method: as §1

[26] = system: ryegrass, Italian (italian ryegrass, Lolium multiflorum); assay: as above; details: 10 days
Summary of the method: as §1

[27] = system: oat, wild (wild oat, Avena fatua); assay: as above; details: 10 days
Summary of the method: as §1

[28] = 62 g ai/ha, postemergence, 10 days, 0 = no effect, 100 = complete control
[29] = Postemergence, 16 g ai/ha, greenhouse 10 days, 0 no effect, 100 complete control
[30] = 62 g ai/ha, 0 = no effect, 100 = complete control

COC(=O)C1=CCC(NC(=O)C2(C)CN(c3cc(Cl)c(F)c(Cl)c3)C(=O)O2)C1 (stereo not drawn) [Compound 129]
Ragweed plant response rating (0-100) [1, 28]: 30
Ragweed plant response rating (0 to 100 scale) [1, 29]: 0
Horseweed plant response rating (0-100) [2, 28]: 60
Horseweed plant response rating (0 to 100 scale) [2, 29]: 0
Foxtail, Green plant response rating (0-100) [3, 28]: 90
Foxtail, Green plant response rating (0 to 100 scale) [3, 29]: 20
Wheat plant response rating (0-100) [4, 28]: 80
Wheat plant response rating (0 to 100 scale) [4, 29]: 10
Kochia plant response rating (0-100) (kochia (Bassia scoparia) [5]; [28]): 80
Kochia plant response rating (0 to 100 scale) (kochia (Bassia scoparia) [5]; [29]): 50
Barnyardgrass plant response rating (0-100) [6, 28]: 100
Barnyardgrass plant response rating (0 to 100 scale) [6, 29]: 80
Corn plant response rating (0-100) (corn (Zea mays) [7]; [28]): 100
Corn plant response rating (0 to 100 scale) (corn (Zea mays) [7]; [29]): 70
Pigweed, Palmer plant response rating (0-100) [8, 28]: 70
Pigweed, Palmer plant response rating (0 to 100 scale) [8, 29]: 50
Blackgrass plant response rating (0-100) [9, 28]: 40
Blackgrass plant response rating (0 to 100 scale) [9, 29]: 20
Galium plant response rating (0-100) [10, 28]: 80
Galium plant response rating (0 to 100 scale) [10, 29]: 70
Soybean plant response rating (0-100) (soybean (Glycine max) [11]; [28]): 70
Soybean plant response rating (0 to 100 scale) (soybean (Glycine max) [11]; [29]): 20
Ryegrass, Italian plant response rating (0-100) [12, 28]: 60
Ryegrass, Italian plant response rating (0 to 100 scale) [12, 29]: 30
Oat, Wild plant response rating (0-100) [13, 28]: 20
Oat, Wild plant response rating (0 to 100 scale) [13, 29]: 10
Plant response rating, Barnyardgrass (0 to 100 scale, 0 is no effect and 100 is complete control) [14]: 50
Plant response rating, Sedge, Umbrella (0 to 100 scale, 0 is no effect and 100 is complete control) [15]: 90
Plant response rating, Ducksalad (0 to 100 scale, 0 is no effect and 100 is complete control) [16]: 70
Plant response rating, Rice (0 to 100 scale, 0 is no effect and 100 is complete control) (rice (Oryza sativa)): 40
Ragweed plant response rating ([17]; 16 g ai/ha, 0 to 100 scale): 0
Ragweed plant response rating (0-100) [17, 30]: 0
Foxtail, Green plant response rating ([18]; 16 g ai/ha, 0 to 100 scale): 0
Foxtail, Green plant response rating (0-100) [18, 30]: 0
Wheat plant response rating ([19]; 16 g ai/ha, 0 to 100 scale): 0
Wheat plant response rating (0-100) [19, 30]: 20
Kochia plant response rating (0-100) (kochia (Bassia scoparia) [20]): 0
Barnyardgrass plant response rating ([21]; 16 g ai/ha, 0 to 100 scale): 0
Barnyardgrass plant response rating (0-100) [21, 30]: 30
Corn plant response rating (corn (Zea mays) [22]; 16 g ai/ha, 0 to 100 scale): 0
Corn plant response rating (0-100) (corn (Zea mays) [22]; [30]): 30
Pigweed, Palmer plant response rating ([23]; 16 g ai/ha, 0 to 100 scale): 0
Pigweed, Palmer plant response rating (0-100) [23, 30]: 20
Blackgrass plant response rating ([24]; 16 g ai/ha, 0 to 100 scale): 0
Blackgrass plant response rating (0-100) [24, 30]: 0
Soybean plant response rating (soybean (Glycine max) [25]; 16 g ai/ha, 0 to 100 scale): 0
Soybean plant response rating (0-100) (soybean (Glycine max) [25]; [30]): 0
Ryegrass, Italian plant response rating ([26]; 16 g ai/ha, 0 to 100 scale): 0
Ryegrass, Italian plant response rating (0-100) [26, 30]: 40
Oat, Wild plant response rating ([27]; 16 g ai/ha, 0 to 100 scale): 0
Oat, Wild plant response rating (0-100) [27, 30]: 0
